Test results from US11987586B1 (TAKEDA PHARMACEUTICAL COMPANY LIMITED, priority 2022, dated 2024).

Target: T1, human OX2 receptor (Homo sapiens, UniProt O43614)
T1 construct: expressed in transfected cells
T1 sequence (O43614 1-444): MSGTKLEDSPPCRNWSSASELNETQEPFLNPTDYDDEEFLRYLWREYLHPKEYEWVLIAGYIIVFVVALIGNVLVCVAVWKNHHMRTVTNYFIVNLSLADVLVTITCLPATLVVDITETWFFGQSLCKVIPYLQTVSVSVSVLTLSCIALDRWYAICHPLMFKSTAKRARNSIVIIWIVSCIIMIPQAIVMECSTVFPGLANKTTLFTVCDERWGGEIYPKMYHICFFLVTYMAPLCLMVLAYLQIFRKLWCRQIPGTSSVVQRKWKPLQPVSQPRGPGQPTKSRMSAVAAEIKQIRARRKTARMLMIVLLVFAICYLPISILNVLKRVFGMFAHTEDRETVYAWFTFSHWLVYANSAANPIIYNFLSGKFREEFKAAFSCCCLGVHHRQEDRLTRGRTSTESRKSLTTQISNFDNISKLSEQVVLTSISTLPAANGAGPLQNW
Assay: Measurement of orexin type 2 receptor agonist activity (calcium fluorescence, Fluo-4, FDSS)
Type: cell-based
Conditions: 3 uM test compound; CHO cells expressing human OX2 receptor; DMSO = 0%, 10 nM orexin A (human) = 100%
How it was run: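 CHO-K1 cells stably expressing human OX2 receptor (residues 1-444) were loaded with Fluo-4 AM plus probenecid. Calcium fluorescence after compound addition was recorded for 1 min 40 s. Activity (%) was scaled between DMSO (0%) and 10 nM orexin A final (100%).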

Row | OX2R agonist activity (3 uM, %) | Compound
1 | 100% | CS(=O)(=O)N[C@@H]1Cn2c(cn(-c3noc4cccc(-c5c(F)cccc5F)c34)c2=O)C1(F)F [Example 102, N-{(6R)-2-[4-(2,6-Difluorophenyl)-1,2-benzoxazol-3-yl]-7,7-difluoro-3-oxo-2,5,6,7-tetrahydro-3H-pyrrolo[1,2-c]imidazol-6-yl}methanesulfonamide]
2 | 110% | CNS(=O)(=O)N[C@@H]1Cn2c(cn(-c3noc4cc(C)nc(-c5c(F)cc(F)cc5F)c34)c2=O)C1(F)F [Example 257, N-{(6R)-7,7-difluoro-2-[6-methyl-4-(2,4,6-trifluorophenyl)[1,2]oxazolo[4,5-c]pyridin-3-yl]-3-oxo-2,5,6,7-tetrahydro-3H-pyrrolo[1,2-c]imidazol-6-yl}-N′-methylsulfuric diamide]
3 | 106% | CS(=O)(=O)N[C@@H]1CN2C(=O)N(c3noc4cccc(-c5c(F)cccc5F)c34)C[C@@H]2C1(F)F [Example 34, N-{(6R,7aR)-2-[4-(2,6-Difluorophenyl)-1,2-benzoxazol-3-yl]-7,7-difluoro-3-oxohexahydro-1H-pyrrolo[1,2-c]imidazol-6-yl}methanesulfonamide]
4 | 113% | O=C1N(c2noc3cc(F)c(F)c(-c4c(F)cc(F)cc4F)c23)CC[C@H]2N1C[C@@H](NS(=O)(=O)C1CC1)C2(F)F [Example 305, N-{(4aR,6R)-2-[5,6-difluoro-4-(2,4,6-trifluorophenyl)-1,2-benzoxazol-3-yl]-5,5-difluoro-1-oxooctahydropyrrolo[1,2-c]pyrimidin-6-yl}cyclopropanesulfonamide]
5 | 107% | CS(=O)(=O)N[C@@H]1CC[C@H]2CN(c3noc4cccc(-c5c(F)cccc5F)c34)C(=O)N2C1 (relative stereo) [Example 63, rel-N-{(6R, 8aS)-2-[4-(2,6-difluorophenyl)-1,2-benzoxazol-3-yl]-3-oxooctahydroimidazo[1,5-a]pyridin-6-yl}methanesulfonamide]
6 | 95% | CCS(=O)(=O)N[C@H]1Cc2cn(-c3c(C)nn4cccc(-c5c(F)cccc5F)c34)c(=O)n2C1 [Example 85, N-{(6S)-2-[4-(2,6-difluorophenyl)-2-methylpyrazolo[1,5-a]pyridin-3-yl]-3-oxo-2,5,6,7-tetrahydro-3H-pyrrolo[1,2-c]imidazol-6-yl}ethanesulfonamide]
7 | 108% | CCS(=O)(=O)N[C@@H]1CN2C(=O)N(c3noc4cccc(-c5c(F)cc(F)cc5F)c34)CC[C@@H]2C1(F)F [Example 260, N-{(4aR,6R)-5,5-difluoro-1-oxo-2-[4-(2,4,6-trifluorophenyl)-1,2-benzoxazol-3-yl]octahydropyrrolo[1,2-c]pyrimidin-6-yl}ethanesulfonamide]
8 | 91% | CS(=O)(=O)N[C@@H]1CN2C(=O)N(c3noc4cc(Cl)cc(-c5c(F)cccc5F)c34)C[C@@H]2C1(F)F [Example 87, N-{(6R,7aR)-2-[6-chloro-4-(2,6-difluorophenyl)-1,2-benzoxazol-3-yl]-7,7-difluoro-3-oxohexahydro-1H-pyrrolo[1,2-c]imidazol-6-yl}methanesulfonamide]
9 | 96% | CCS(=O)(=O)N[C@@H]1Cn2c(cn(-c3noc4cc(C)cc(-c5c(F)cc(F)cc5F)c34)c2=O)C1(F)F [Example 155, N-{(6R)-7,7-difluoro-2-[6-methyl-4-(2,4,6-trifluorophenyl)-1,2-benzoxazol-3-yl]-3-oxo-2,5,6,7-tetrahydro-3H-pyrrolo[1,2-c]imidazol-6-yl}ethanesulfonamide]
10 | 100% | CS(=O)(=O)N[C@H]1C[C@H]2CN(c3noc4cccc(-c5c(F)cccc5F)c34)C(=O)[C@H]2C1 (relative stereo) [Example 338, rel-N-{(3aR,5S,6aS)-2-[4-(2,6-difluorophenyl)-1,2-benzoxazol-3-yl]-1-oxooctahydrocyclopenta[c]pyrrol-5-yl}methanesulfonamide]
11 | 99% | CCOc1cc2onc(N3CC[C@H]4N(C[C@@H](NS(C)(=O)=O)C4(F)F)C3=O)c2c(-c2c(F)cc(F)cc2F)c1F [Example 202, N-{(4aR,6R)-2-[6-ethoxy-5-fluoro-4-(2,4,6-trifluorophenyl)-1,2-benzoxazol-3-yl]-5,5-difluoro-1-oxooctahydropyrrolo[1,2-c]pyrimidin-6-yl}methanesulfonamide]
12 | 101% | CCS(=O)(=O)N[C@@H]1CN2C(=O)N(c3noc4cccc(-c5ccccc5C)c34)CC[C@@H]2C1(F)F [Example 325, N-{(4aR,6R)-5,5-difluoro-2-[4-(2-methylphenyl)-1,2-benzoxazol-3-yl]-1-oxooctahydropyrrolo[1,2-c]pyrimidin-6-yl}ethanesulfonamide]
13 | 113% | CS(=O)(=O)N[C@@H]1CN2C(=O)N(c3noc4cc(F)cc(-c5c(F)cccc5F)c34)CC[C@@H]2C1(F)F [Example 314, N-{(4aR,6R)-2-[4-(2,6-difluorophenyl)-6-fluoro-1,2-benzoxazol-3-yl]-5,5-difluoro-1-oxooctahydropyrrolo[1,2-c]pyrimidin-6-yl}methanesulfonamide]
14 | 108% | O=C1N(c2noc3cc(F)cc(-c4c(F)cc(F)cc4F)c23)CC[C@H]2N1C[C@@H](NS(=O)(=O)CF)C2(F)F [Example 236, N-{(4aR,6R)-5,5-difluoro-2-[6-fluoro-4-(2,4,6-trifluorophenyl)-1,2-benzoxazol-3-yl]-1-oxooctahydropyrrolo[1,2-c]pyrimidin-6-yl}-1-fluoromethanesulfonamide]
15 | 109% | CCS(=O)(=O)N[C@@H]1Cn2c(cn(-c3noc4cc(Cl)cc(-c5c(F)cccc5F)c34)c2=O)C1(F)F [Example 68, N-{(6R)-2-[6-chloro-4-(2,6-difluorophenyl)-1,2-benzoxazol-3-yl]-7,7-difluoro-3-oxo-2,5,6,7-tetrahydro-3H-pyrrolo[1,2-c]imidazol-6-yl}ethanesulfonamide]
16 | 100% | CS(=O)(=O)N[C@@H]1Cn2c(cn(-c3noc4cc(F)c(F)c(-c5c(F)cc(F)cc5F)c34)c2=O)C1(F)F [Example 135, N-{(6R)-2-[5,6-difluoro-4-(2,4,6-trifluorophenyl)-1,2-benzoxazol-3-yl]-7,7-difluoro-3-oxo-2,5,6,7-tetrahydro-3H-pyrrolo[1,2-c]imidazol-6-yl}methanesulfonamide]
17 | 102% | Cc1cc(-c2c(F)cc(F)cc2F)c2c(-n3cc4n(c3=O)C[C@@H](NS(C)(=O)=O)C4(F)F)noc2c1 [Example 127, N-{(6R)-7,7-difluoro-2-[6-methyl-4-(2,4,6-trifluorophenyl)-1,2-benzoxazol-3-yl]-3-oxo-2,5,6,7-tetrahydro-3H-pyrrolo[1,2-c]imidazol-6-yl}methanesulfonamide]
18 | 107% | CN(C)S(=O)(=O)N[C@@H]1Cn2c(cn(-c3noc4ccc(F)c(-c5c(F)cc(F)cc5F)c34)c2=O)C1(F)F [Example 264, N′-{(6R)-7,7-difluoro-2-[5-fluoro-4-(2,4,6-trifluorophenyl)-1,2-benzoxazol-3-yl]-3-oxo-2,5,6,7-tetrahydro-3H-pyrrolo[1,2-c]imidazol-6-yl}-N,N-dimethylsulfuric diamide]
19 | 100% | COc1cc(-c2c(F)cc(F)cc2F)c2c(N3CC[C@H]4N(C[C@@H](NS(=O)(=O)C5CC5)C4(F)F)C3=O)noc2n1 [Example 308, N-{(4aR,6R)-5,5-difluoro-2-[6-methoxy-4-(2,4,6-trifluorophenyl)[1,2]oxazolo[5,4-b]pyridin-3-yl]-1-oxooctahydropyrrolo[1,2-c]pyrimidin-6-yl}cyclopropanesulfonamide]
20 | 103% | CCS(=O)(=O)N[C@@H]1CN2C(=O)N(c3noc4cc(C)nc(-c5c(F)cccc5F)c34)CC[C@@H]2C1(F)F [Example 275, N-{(4aR,6R)-2-[4-(2,6-difluorophenyl)-6-methyl[1,2]oxazolo[4,5-c]pyridin-3-yl]-5,5-difluoro-1-oxooctahydropyrrolo[1,2-c]pyrimidin-6-yl}ethanesulfonamide]
21 | 100% | CS(=O)(=O)N[C@@H]1CN2C(=O)N(c3noc4cc(F)c(F)c(-c5c(F)cc(F)cc5F)c34)C[C@@H]2C1(F)F [Example 171, N-{(6R,7aR)-2-[5,6-Difluoro-4-(2,4,6-trifluorophenyl)-1,2-benzoxazol-3-yl]-7,7-difluoro-3-oxohexahydro-1H-pyrrolo[1,2-c]imidazol-6-yl}methanesulfonamide]
22 | 99% | CCS(=O)(=O)N[C@@H]1CN2C(=O)N(c3noc4cc(F)c(F)c(-c5c(F)cccc5F)c34)CC[C@@H]2C1(F)F [Example 311, N-{(4aR,6R)-2-[4-(2,6-difluorophenyl)-5,6-difluoro-1,2-benzoxazol-3-yl]-5,5-difluoro-1-oxooctahydropyrrolo[1,2-c]pyrimidin-6-yl}ethanesulfonamide]
23 | 113% | O=c1n(-c2noc3ccc(F)c(-c4c(F)cc(F)cc4F)c23)cc2n1C[C@@H](NS(=O)(=O)CF)C2(F)F [Example 293, N-{(6R)-7,7-difluoro-2-[5-fluoro-4-(2,4,6-trifluorophenyl)-1,2-benzoxazol-3-yl]-3-oxo-2,5,6,7-tetrahydro-3H-pyrrolo[1,2-c]imidazol-6-yl}-1-fluoromethanesulfonamide]
